Measurements: patent US9708270B2, “Substituted spiropiperidinyl compounds useful as GPR120 agonists” (Merck Sharp & Dohme Corp., priority 2012, dated 2017)

Biological target: human GPR120 (Homo sapiens (Human), UniProt Q5NUL3)
Assay: FLIPR assay: intracellular calcium in CHO cells expressing human GPR120
Assay type: cell-based
Conditions: FLIPR calcium assay, CHO cells expressing human GPR120, agonist action
Experimental: All compounds were tested under the FLIPR assay unless otherwise indicated.
Primers were synthesized in the domains on the opposite sides of the base sequences of the ORFs of the known GPCR and GPR120 in GenBank Accession NOs. […] The base sequences of the primers used are described below. The restriction enzymes, BamHI and EcoRI, recognition sites were introduced for subcloning, respectively.
As samples for PCR, human small intestine Marathon-ready cDNA (CLONTECH, current corporate name: TaKaRa) and cDMA obtained by reverse transcription of mouse BAT-derived RNA were used for human and mouse GPR120 receptor genes, respectively.
Using KOD Plus (TOYOBO) for PCR, 30 cycles of 94° C. for 2 minutes, 94° C. for 15 seconds, 55° C. for 30 seconds and 68° C. for 1 minute were carried out to effect reaction, followed by addition of 0.5 units of ExTaq (TaKaRa) and incubation at 72° C. for 10 minutes to carry out A-addition reaction to terminals. For mouse PCR, 35 cycles were carried out on the condition of a final DMSO concentration of 2%.
Cloning of amplified PCR products was carried out using pCR2.1-TOPO TA cloning kit (Invitrogen). For verification of base sequences, electrophoresis was carried out using BigDye Terminator Cycle Sequencing Ready Reaction Kit Ver.
The GPR120 receptor genes cloned into pCR2.1-TOPO vectors, into which the restriction enzymes, BamHI and EcoRI, recognition sites were introduced, were excised from the vectors by the enzymes and subcloned into the BamHI and EcoRI recognition sites of eukaryotic expression vector EF1/V5-His B (Invitrogen).
Test 2: Production of Expression Cells
Using Lipofectamine 2000 (Invitrogen), cDNA of GPR120 receptor was transfected into CHO/NFAT-BLA cells, and drug-resistant cells were isolated to obtain GPR120 stable expression strains. The GPR120-expressed CHO cells were cultured in DMEM/F12 medium containing 10% fetal bovine serum, 100 units/ml penicillin, 0.1 mg/ml streptomycin sulfate, 250 μg/ml Zeocin, 500 μg/mL Geneticin and 15 mM HEPES.
Test 3: Measurement of Intracellular Calcium Concentration
To the cells was added the test compound diluted with HBSS solution containing 20 mM HEPES and 2.5 mM probenecid. Variations in the intracellular calcium concentration were measured by Fluorescence Imaging Plate Reader (FLIPR; Molecular Devices) to examine the agonist action, and EC50 values were calculated. […]

Sequence of human GPR120 (Q5NUL3 whole entry): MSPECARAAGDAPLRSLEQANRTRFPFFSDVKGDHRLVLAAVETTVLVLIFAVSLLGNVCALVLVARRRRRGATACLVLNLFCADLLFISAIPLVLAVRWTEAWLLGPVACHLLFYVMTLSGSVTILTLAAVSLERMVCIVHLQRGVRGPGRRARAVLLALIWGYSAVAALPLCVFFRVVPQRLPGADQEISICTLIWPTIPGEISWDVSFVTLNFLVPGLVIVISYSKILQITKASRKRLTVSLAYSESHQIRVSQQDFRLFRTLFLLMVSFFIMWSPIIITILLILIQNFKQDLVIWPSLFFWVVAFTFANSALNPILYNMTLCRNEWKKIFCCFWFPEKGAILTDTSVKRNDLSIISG

SMILES | EC50 [nM]
CC1CC(CC(=O)O)CCC12CCN(c1cc(OC(F)(F)F)ccc1Cl)CC2 (single isomer, unassigned) [Example 89b, 2-(3-(2-Chloro-5-(trifluoromethoxy)phenyl)-7-methyl-3-azaspiro[5.5]undecan-9-yl)acetic acid] | 3130
CC1CC(CC(=O)O)CCC12CCN(c1cc(OC(F)(F)F)ccc1Cl)CC2 (single isomer, unassigned) [Example 89c, 2-(3-(2-Chloro-5-(trifluoromethoxy)phenyl)-7-methyl-3-azaspiro[5.5]undecan-9-yl)acetic acid] | 2490
O=C(O)CC1CCC2(CCN(c3cc(OC(F)(F)F)ccc3Cl)CC2)OC1 (single isomer, unassigned) [Example 91A, (S)-2-(9-(2-chloro-5-(trifluoromethoxy)phenyl)-1-oxa-9-azaspiro[5.5]undecan-3-yl)acetic acid or (R)-2-(9-(2-chloro-5-(trifluoromethoxy)phenyl)-1-oxa-9-azaspiro[5.5]undecan-3-yl)acetic acid] | 636
O=C(O)C[C@@H]1CCC2(CCN(c3cc(OC(F)(F)F)ccc3F)CC2)OC1 (single isomer, unassigned) [Example 93a, (R) or (S) 2-(9-(2-fluoro-5-(trifluoromethoxy)phenyl)-1-oxa-9-azaspiro[5.5]undecan-3-yl)acetic acid] | 1300
O=C(O)CC1CCC2(CC1)CCN(c1cc(C(F)(F)F)ccc1Cl)CC2 [Example 2, 2-(3-(2-chloro-5-(trifluoromethyl)phenyl)-3-azaspiro[5.5]undecan-9-y)acetic acid] | 900
CC(C(=O)O)C1CCC2(CC1)CCN(c1cc(OC(F)(F)F)ccc1Cl)CC2 (centres unmarked) [Example 3, 2-(3-(2-chloro-5-(trifluoromethoxy)phenyl)-3-azaspiro[5.5]undecan-9-yl)propanoic acid] | 3400
O=C(O)CC1CCC2(CC1)CCN(c1cc(OC3CCCC3)ccc1Cl)CC2 [Example 5, 2-(3-(2-chloro-5-(cyclopentyloxy)phenyl)-3-azaspiro[5.5]undecan-9-yl)acetic acid] | 1100
O=C(O)CC1CCC2(CC1)CCN(c1cc(OC(F)(F)F)ccc1F)CC2 [Example 7] | 410
Cc1ccc(Cl)c(N2CCC3(CCC(CC(=O)O)CC3)CC2)c1 [Example 9] | 2180
O=C(O)CC1CCC2(CC1)CCN(c1cc([N+](=O)[O-])ccc1Cl)CC2 [Example 10] | 1700
CC1(C)Cc2cc(Cl)cc(N3CCC4(CCC(CC(=O)O)CC4)CC3)c2O1 [Example 11] | 2850
O=C(O)CC1CCC2(CC1)CCN(c1cc(F)ccc1C(F)F)CC2 [Example 12] | 2420
COc1ccc(Cl)cc1N1CCC2(CCC(CC(=O)O)CC2)CC1 [Example 14] | 3100
O=C(O)CC1CCC2(CC1)CCN(c1cc(C(F)(F)F)ccc1F)CC2 [Example 16] | 652
N#Cc1ccc(F)cc1N1CCC2(CCC(CC(=O)O)CC2)CC1 [Example 17] | 2360
Cc1cc(C)cc(N2CCC3(CCC(CC(=O)O)CC3)CC2)c1 [Example 19] | 948

SMILES | EC50 [nM]
O=C(O)CC1CCC2(CC1)CCN(c1cc(C(F)(F)F)ccc1C(F)(F)F)CC2 [Example 21] | 3270
O=C(O)CC1CCC2(CC1)CCN(c1cc(C(F)F)cc(C(F)F)c1)CC2 [Example 22] | 3010
CC(C)c1cc(C#N)cc(N2CCC3(CCC(CC(=O)O)CC3)CC2)c1 [Example 24] | 3460
CSc1nc(N2CCC3(CCC(CC(=O)O)CC3)CC2)cc(C(F)(F)F)n1 [Example 26] | 8300
O=C(O)CC1CCC2(CC1)CCN(c1cc(C(F)F)cc(C(F)F)n1)CC2 [Example 27] | 2990
O=C(O)CC1CCC2(CC1)CCN(c1cc(F)cc(C(F)(F)F)c1)CC2 [Example 31] | 1220
O=C(O)CC1CCC2(CC1)CCN(c1cc(C(F)(F)F)cc(C(F)(F)F)c1)CC2 [Example 32] | 2150
O=C(O)CC1CCC2(CC1)CCN(c1cc(C(F)(F)F)ccn1)CC2 [Example 33] | 3060
N#Cc1ccc(OC(F)(F)F)cc1N1CCC2(CCC(CC(=O)O)CC2)CC1 [Example 35] | 431
Cc1cc(F)c(Cl)c(N2CCC3(CCC(CC(=O)O)CC3)CC2)c1 [Example 37] | 2170
Cc1cc(Cl)cc(N2CCC3(CCC(CC(=O)O)CC3)CC2)c1C#N [Example 40] | 2540
CSc1ccc(OC(F)(F)F)cc1N1CCC2(CCC(CC(=O)O)CC2)CC1 [Example 41] | 1690
Cc1cc(C)c(Cl)c(N2CCC3(CCC(CC(=O)O)CC3)CC2)c1 [Example 43] | 2520
CCc1cc(CC)cc(N2CCC3(CCC(CC(=O)O)CC3)CC2)c1 [Example 44] | 2580
O=C(O)CC1CCC2(CC1)CCN(c1cc(OC3CCC3)ccc1Cl)CC2 [Example 47] | 330

More lines, in order of falling EC50, values ahead:

EC50 [nM] | SMILES
3750 | CC(C)(C)c1cc(N2CCC3(CCC(CC(=O)O)CC3)CC2)cc(C(F)(F)F)c1 [Example 23]
3040 | Cc1cc(F)cc(N2CCC3(CCC(CC(=O)O)CC3)CC2)c1 [Example 28]
2760 | CC1CC(CC(=O)O)CCC12CCN(c1cc(OC(F)(F)F)ccc1Cl)CC2 (single isomer, unassigned) [Example 89a, 2-(3-(2-Chloro-5-(trifluoromethoxy)phenyl)-7-methyl-3-azaspiro[5.5]undecan-9-yl)acetic acid]
2630 | FC(F)(F)Oc1ccc(Cl)c(N2CCC3(CCC(Cc4nn[nH]n4)CO3)CC2)c1 (racemic) [Example 92, 3-((2H-tetrazol-5-yl)methyl)-9-(2-chloro-5-(trifluoromethoxy)phenyl)-1-oxa-9-azaspiro[5.5]undecane]
2420 | COc1cc(F)c(N2CCC3(CCC(CC(=O)O)CC3)CC2)cc1F [Example 6]
2360 | COc1ccc(C(F)(F)F)cc1N1CCC2(CCC(CC(=O)O)CC2)CC1 [Example 15]
2150 | O=C(O)CC1CCC2(CC1)CCN(c1cc(F)cc(Cl)c1F)CC2 [Example 38]
2140 | Cc1ccc(C#N)c(N2CCC3(CCC(CC(=O)O)CC3)CC2)c1 [Example 13]
1800 | O=C(O)CC1CCC2(CC1)CCN(c1cc(Cl)cc(F)c1F)CC2 [Example 39]
1790 | O=C(O)CC1CCC2(CC1)CCN(c1cc(F)cc(Cl)c1)CC2 [Example 29]
1670 | COc1ccc(Cl)c(N2CCC3(CCC(CC(=O)O)CC3)CC2)c1 [Example 8]
1660 | CCC(=O)c1ccc(F)c(N2CCC3(CCC(CC(=O)O)CC3)CC2)c1 [Example 20]
1480 | O=C(O)CC1COC2(CCN(c3cc(OC(F)(F)F)ccc3F)CC2)C1 (racemic) [Example 94, 2-(8-(2-fluoro-5-(trifluoromethoxy)phenyl)-1-oxa-8-azaspiro[4.5]decan-3-yl)acetic acid]
1290 | CCc1cc(C)cc(N2CCC3(CCC(CC(=O)O)CC3)CC2)c1 [Example 46]
1170 | Cc1cc(Cl)cc(N2CCC3(CCC(CC(=O)O)CC3)CC2)c1 [Example 45]
1150 | N#Cc1cc(SC(F)(F)F)cc(N2CCC3(CCC(CC(=O)O)CC3)CC2)c1 [Example 25]
1020 | O=C(O)CC1CCC2(CCN(c3cc(OC(F)(F)F)ccc3Cl)CC2)OC1 (single isomer, unassigned) [Example 91B, (S)-2-(9-(2-chloro-5-(trifluoromethoxy)phenyl)-1-oxa-9-azaspiro[5.5]undecan-3-yl)acetic acid or (R)-2-(9-(2-chloro-5-(trifluoromethoxy)phenyl)-1-oxa-9-azaspiro[5.5]undecan-3-yl)acetic acid]
878 | O=C(O)CC1CCC2(CC1)CCN(c1cc(Cl)cc(Cl)c1)CC2 [Example 30]
832 | O=C(O)CC1CCC2(CC1)CCN(c1cc(Cl)cc(C(F)(F)F)c1)CC2 [Example 36]
750 | O=C(O)C[C@@H]1CCC2(CCN(c3cc(OC(F)(F)F)ccc3F)CC2)OC1 (single isomer, unassigned) [Example 93b, (R) or (S) 2-(9-(2-fluoro-5-(trifluoromethoxy)phenyl)-1-oxa-9-azaspiro[5.5]undecan-3-yl)acetic acid]
749 | Cc1ccc(C(F)(F)F)cc1N1CCC2(CCC(CC(=O)O)CC2)CC1 [Example 42]
671 | Cc1cc(N2CCC3(CCC(CC(=O)O)CC3)CC2)cc(C(F)(F)F)c1 [Example 34]
530 | CC(C)Oc1ccc(Cl)c(N2CCC3(CCC(CC(=O)O)CC3)CC2)c1 [Example 18]
377 | Cc1cc(OC(F)(F)F)cc(N2CCC3(CCC(CC(=O)O)CC3)CC2)c1 [Example 48]

Same assay, conditions: at 8300 nM; 100% activation defined by reference compound of U.S. Pat. No. 8,367,708

Human GPR120 % activation [%] | SMILES
62 | CSc1nc(N2CCC3(CCC(CC(=O)O)CC3)CC2)cc(C(F)(F)F)n1 [Example 26]
